Results taken from patent publication US20260043007A1, “METHOD FOR PRODUCING CARDIAC MUSCLES” (Kyoto University, priority 2022, published 2026).

How the values were obtained:
[1] = system: HEY2 (target gene of Notch signal); test: Expression analysis of the target gene of Notch signal (HEY2) in sorted cell subpopulations; assay type: cell-based, human; details: both CD151-high and CD151-low, compared to DMSO-added control
Protocol: (§1) On the 6th day of differentiation, the medium was replaced with cardiomyocyte induction medium 3, and from the 8th day of differentiation onwards, 3 μM of γ-secretase inhibitor (LY411575) that inhibits Notch signaling was added when changing the medium, and the cells were cultured at 37° C. under 5% oxygen conditions until the 10th day. Cells added with 0.1% DMSO were also prepared as a control. Thereafter, the medium was changed on the 10th, 13th, 15th, and 17th days, and after the medium change on the 10th day, the cells were cultured under normal oxygen conditions until the 20th day. As the cardiomyocyte induction medium 3, StemPro-34 SFM supplemented with 1% L-glutamine, 150 μg/ml transferrin, 50 μg/ml ascorbic acid, 4×10^-4 M monothioglycerol, and 5 ng/ml VEGF was used.
(§2) The expression of marker genes indicating Notch signal activity and atrial myocyte markers was analyzed for the cardiomyocyte subpopulations “DMSO/CD151-high”, “DMSO/CD151-low”, “Notch inhibitor/CD151-high”, and “Notch inhibitor/CD151-low” obtained in Experimental Example 2.
(§3) According to the conventional method, total RNA was extracted from each cell subpopulation and expression analysis was performed for the target gene of Notch signal (HEY2) and the marker genes of atrial myocytes (NR2F1, NR2F2, NPPA, KCNA5, KCNJ3, TBX5 and MYL7). […]

[2] = system: cardiomyocyte subpopulations differentiated from human iPS cells; test: Proportion of atrial myocytes by whole-cell patch clamp electrophysiology; assay type: cell-based; details: for atrial myocytes (%): APD 30/90 less than 0.3 and dv/dtmax 10 or more
Protocol: as §1
The proportion of atrial myocytes was determined by an electrophysiological method for the “Notch inhibitor/CD151-high” and “Notch inhibitor/CD151-low” cardiomyocyte subpopulations obtained in Experimental Example 2.
Each cell subpopulation was cultured on a fibronectin-coated cover glass. Culture was performed at 37° C. under normal oxygen conditions using StemPro-34 SFM supplemented with 1% L-glutamine, 150 μg/ml transferrin, 50 ug/ml ascorbic acid, 4×10^-4 M monothioglycerol, and 5 ng/ml VEGF, with medium change every 3 days. Cells on the 15th and 16th days of culture were subjected to electrophysiological analysis.
Analysis was performed using the whole-cell patch clamp method using Axopatch 200B amplifier (Molecular Devices) and pCLAMP software. Electrodes were made with glass capillaries (WPI) using a micropipette puller and filled with intracellular solution (130 mM KOH, 130 mM L-aspartic acid, 20 mM KC1, 5 mM NaCl, 10 mM HEPES, 5 mM Mg-ATP, 10 mM EGTA, 1 mM MgC12, PH 7.2). Experiments were performed at 35-37° C. while perfusing Gey's balanced salt solution (Sigma) as the extracellular solution. The spontaneous action potential of each cell was recorded for 1 min in current clamp mode. APD30, APD90, and maximum velocity of waveform rise (dv/dtmax) were calculated from the average waveform of 8-10 consecutive waveforms. Cells showing a waveform with APD 30/90 of less than 0.3 and dv/dtmax of 10 or more were defined as atrial myocytes. Cells showing a waveform with APD 30/90 of 0.3 or more and dv/dtmax of 10 or more or dv/dtmax of less than 10 were classified as other cells. […]

[3] = system: CD151 expression in EmGFP-positive cells induced from human iPS cell line (1390D4 strain); test: Sorting of atrial myocyte population based on CD151 expression level (flow cytometry); assay type: cell-based; details: 3 μM LY411575 from day 8 to day 20 of differentiation, mean ± standard error
Protocol: A cell population containing cardiomyocytes was induced from iPSC under atrial myocyte differentiation conditions or ventricular myocyte differentiation conditions. As iPSC, a double knock-in human iPS cell line (1390D4 strain) was used, in which EmGFP was inserted into the TNNI1 locus and mCherry was inserted into the TNNI3 locus as reporter proteins.
To differentiate iPSC into cardiomyocytes, iPSC was seeded into low-adhesion 6-well plates (2×10^6 cells/1.5 ml/well) and statically cultured at 37° C. and 5% oxygen to form embryoid bodies (day 0). The culture medium used was StemPro-34 SFM (Thermo Fisher Scientific) supplemented with 1% L-glutamine, 150 μg/ml transferrin, […] ascorbic acid, 4×10^-4 M monothioglycerol, 10 μM Rock inhibitor (Y-27632), 2 ng/ml BMP4, and 0.5% Matrigel. […]
On the 20th day of culture, the cell population containing atrial myocytes was dispersed into single cells and the cell number was counted. […] CD151 expression in EmGFP-positive cells was analyzed using a flow cytometer (BD FACS Aria Fusion cell sorter). The fluorescence intensity of 95% or more of the negative control cells was set as the threshold, and the cell subpopulations showing fluorescence intensity lower than the threshold were defined as “CD151-low” and the cell subpopulations showing fluorescence intensity higher than the threshold were defined as “CD151-high”. […]

[4] = system: marker genes of atrial myocytes (NR2F1, NR2F2, NPPA, KCNA5, KCNJ3, TBX5 and MYL7); test: Expression analysis of atrial myocyte marker genes in sorted cell subpopulations; assay type: cell-based, human; details: both CD151-high and CD151-low, compared to DMSO-added control population
Protocol: as §1, §2, §3

[5] = CD151-high subpopulation, n = 19
[6] = CD151-low subpopulation, n = 20

C[C@H](NC(=O)[C@@H](O)c1cc(F)cc(F)c1)C(=O)N[C@@H]1C(=O)N(C)c2ccccc2-c2ccccc21 [Notch inhibitor]
expression of the HEY2 gene [1]: reduced | other cells (%) [2, 5]: 68% | atrial myocytes (%) [2, 5]: 32% | other cells (%) [2, 6]: 20% | atrial myocytes (%) [2, 6]: 80% | Cell population (%) CD151-high [3]: 39.9 ± 3.3% | Cell population (%) CD151-low [3]: 60.1 ± 3.3% | expression of atrial myocyte markers [4]: increased
